Measurements reported in publication PMC6979384, “Characterization of the plant homeodomain (PHD) reader family for their histone tail interactions” (Epigenetics & Chromatin, 2020).

Assays:
Experiment in all cases: Histone peptide microarray
Format in all cases: binding, human
ING2 = conditions: sheet "Array Heatmap"; GST-tagged ING2; arrays performed twice, total replicate number n = 4
Summary of the method: (§1)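 Mean ± SD of 4 replicate array intensities; GST-PHD finger at 0.5 μM against 293 PTM-bearing histone peptides.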

CHD5 (PPCC) = conditions: sheet "Array Heatmap"; GST-tagged CHD5 (PPCC); arrays performed twice, total replicate number n = 4
Summary of the method: as §1

PHF2 = conditions: sheet "Array Heatmap"; GST-tagged PHF2; arrays performed twice, total replicate number n = 4
Summary of the method: as §1

CHD4 (PPCC) = conditions: sheet "Array Heatmap"; GST-tagged CHD4 (PPCC); arrays performed twice, total replicate number n = 4
Summary of the method: as §1

PHF8 = conditions: sheet "Array Heatmap"; GST-tagged PHF8; arrays performed twice, total replicate number n = 4
Summary of the method: as §1

PHF23 = conditions: sheet "Array Heatmap"; GST-tagged PHF23; arrays performed twice, total replicate number n = 4
Summary of the method: as §1

PHF21A = conditions: sheet "Array Heatmap"; GST-tagged PHF21A; arrays performed twice, total replicate number n = 4
Summary of the method: as §1

ING5 = conditions: sheet "Array Heatmap"; GST-tagged ING5; arrays performed twice, total replicate number n = 4
Summary of the method: as §1

ING3 = conditions: sheet "Array Heatmap"; GST-tagged ING3; arrays performed twice, total replicate number n = 4
Summary of the method: as §1

SP140L = conditions: sheet "Array Heatmap"; GST-tagged SP140L; arrays performed twice, total replicate number n = 4
Summary of the method: as §1

KDM4C (TTP) = conditions: sheet "Array Heatmap"; GST-tagged KDM4C (TTP); arrays performed twice, total replicate number n = 4
Summary of the method: as §1

KDM5B (3) = conditions: sheet "Array Heatmap"; GST-tagged KDM5B (3); arrays performed twice, total replicate number n = 4
Summary of the method: as §1

RAG2 = conditions: sheet "Array Heatmap"; GST-tagged RAG2; arrays performed twice, total replicate number n = 4
Summary of the method: as §1

DIDO1 = conditions: sheet "Array Heatmap"; GST-tagged DIDO1; arrays performed twice, total replicate number n = 4
Summary of the method: as §1

BPTF (PB) = conditions: sheet "Array Heatmap"; GST-tagged BPTF (PB); arrays performed twice, total replicate number n = 4
Summary of the method: as §1

DPF2 (PPC2W2) = conditions: sheet "Array Heatmap"; GST-tagged DPF2 (PPC2W2); arrays performed twice, total replicate number n = 4
Summary of the method: as §1

KDM5B (1) = conditions: sheet "Array Heatmap"; GST-tagged KDM5B (1); arrays performed twice, total replicate number n = 4
Summary of the method: as §1

KDM7A = conditions: sheet "Array Heatmap"; GST-tagged KDM7A; arrays performed twice, total replicate number n = 4
Summary of the method: as §1

BAZ2B = conditions: sheet "Array Heatmap"; GST-tagged BAZ2B; arrays performed twice, total replicate number n = 4
Summary of the method: as §1

AIRE (PP) = conditions: sheet "Array Heatmap"; GST-tagged AIRE (PP); arrays performed twice, total replicate number n = 4
Summary of the method: as §1

TRIM66 (PB) = conditions: sheet "Array Heatmap"; GST-tagged TRIM66 (PB); arrays performed twice, total replicate number n = 4
Summary of the method: as §1

TAF3 = conditions: sheet "Array Heatmap"; GST-tagged TAF3; arrays performed twice, total replicate number n = 4
Summary of the method: as §1

MLL5 = conditions: sheet "Array Heatmap"; GST-tagged MLL5; arrays performed twice, total replicate number n = 4
Summary of the method: as §1

PHF13 = conditions: sheet "Array Heatmap"; GST-tagged PHF13; arrays performed twice, total replicate number n = 4
Summary of the method: as §1

MORC3 (CW) = conditions: sheet "Array Heatmap"; GST-tagged MORC3 (CW); arrays performed twice, total replicate number n = 4
Summary of the method: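 A peptide microarray holding 293 synthetic histone peptides with individual or combinatorial modifications was probed with each GST-PHD protein at 0.5 μM. Values represent mean intensity (±SD) from four replicates.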

KDM5A (3) = conditions: sheet "Array Heatmap"; GST-tagged KDM5A (3); arrays performed twice, total replicate number n = 4
Summary of the method: as §1

CHD5 (PCC) = conditions: sheet "Array Heatmap"; GST-tagged CHD5 (PCC); arrays performed twice, total replicate number n = 4
Summary of the method: as §1

PHRF1 (RP) = conditions: sheet "Array Heatmap"; GST-tagged PHRF1 (RP); arrays performed twice, total replicate number n = 4
Summary of the method: as §1

KDM5A (1) = conditions: sheet "Array Heatmap"; GST-tagged KDM5A (1); arrays performed twice, total replicate number n = 4
Summary of the method: as §1

ING1 = conditions: sheet "Array Heatmap"; GST-tagged ING1; arrays performed twice, total replicate number n = 4
Summary of the method: as §1

ING4 = conditions: sheet "Array Heatmap"; GST-tagged ING4; arrays performed twice, total replicate number n = 4
Summary of the method: as §1

| Substance | Array Heatmap signal, ING2 (ING2) | Array Heatmap signal, CHD5 (PPCC) (CHD5 (PPCC)) | Array Heatmap signal, PHF2 (PHF2) | Array Heatmap signal, CHD4 (PPCC) (CHD4 (PPCC)) | Array Heatmap signal, PHF8 (PHF8) | Array Heatmap signal, PHF23 (PHF23) | Array Heatmap signal, PHF21A (PHF21A) | Array Heatmap signal, ING5 (ING5) | Array Heatmap signal, ING3 (ING3) | Array Heatmap signal, SP140L (SP140L) | Array Heatmap signal, KDM4C (TTP) (KDM4C (TTP)) | Array Heatmap signal, KDM5B (3) (KDM5B (3)) | Array Heatmap signal, RAG2 (RAG2) | Array Heatmap signal, DIDO1 (DIDO1) | Array Heatmap signal, BPTF (PB) (BPTF (PB)) | Array Heatmap signal, DPF2 (PPC2W2) (DPF2 (PPC2W2)) | Array Heatmap signal, KDM5B (1) (KDM5B (1)) | Array Heatmap signal, KDM7A (KDM7A) | Array Heatmap signal, BAZ2B (BAZ2B) | Array Heatmap signal, AIRE (PP) (AIRE (PP)) | also measured |
| --- | --- | --- | --- | --- | --- | --- | --- | --- | --- | --- | --- | --- | --- | --- | --- | --- | --- | --- | --- | --- | --- |
| H3.3K27me1: H3.3 15-34 [Peptide H3.3K27me1] | 0.5862 | 0.5646 | 0.3646 | 0.5655 | 0.3072 | 0.4768 | 0.4715 | 0.3774 | 0.4473 | 0.3662 | 0.5409 | 0.4744 | 0.2345 | 0.5418 | 0.3434 | 0.6219 | 0.6832 | 0.4745 | 0.5147 | 0.5413 | Array Heatmap signal, TRIM66 (PB) (TRIM66 (PB)): 0.534; Array Heatmap signal, TAF3 (TAF3): 0.2716; Array Heatmap signal, MLL5 (MLL5): 0.5371; Array Heatmap signal, PHF13 (PHF13): 0.6089; Array Heatmap signal, MORC3 (CW) (MORC3 (CW)): 0.3133; Array Heatmap signal, KDM5A (3) (KDM5A (3)): 0.366; Array Heatmap signal, CHD5 (PCC) (CHD5 (PCC)): 0.7906; Array Heatmap signal, PHRF1 (RP) (PHRF1 (RP)): 0.3762; Array Heatmap signal, KDM5A (1) (KDM5A (1)): 0.5094; Array Heatmap signal, ING1 (ING1): 0.4683; Array Heatmap signal, ING4 (ING4): 0.4785 |
| H3.3K27me2 + S28p: H3.3 15-34 | 0.6211 | 0.5567 | 0.5406 | 0.6277 | 0.3445 | 0.5303 | 0.4472 | 0.3515 | 0.4796 | 0.3521 | 0.4645 | 0.4734 | 0.2608 | 0.6639 | 0.3515 | 0.6352 | 0.6269 | 0.3322 | 0.4685 | 0.3996 | Array Heatmap signal, TRIM66 (PB) (TRIM66 (PB)): 0.5871; Array Heatmap signal, TAF3 (TAF3): 0.2725; Array Heatmap signal, MLL5 (MLL5): 0.548; Array Heatmap signal, PHF13 (PHF13): 0.6326; Array Heatmap signal, MORC3 (CW) (MORC3 (CW)): 0.3408; Array Heatmap signal, KDM5A (3) (KDM5A (3)): 0.4997; Array Heatmap signal, CHD5 (PCC) (CHD5 (PCC)): 0.7282; Array Heatmap signal, PHRF1 (RP) (PHRF1 (RP)): 0.4333; Array Heatmap signal, KDM5A (1) (KDM5A (1)): 0.4568; Array Heatmap signal, ING1 (ING1): 0.5375; Array Heatmap signal, ING4 (ING4): 0.4488 |
| H3.3K27me2: H3.3 15-34 [Peptide H3.3K27me2] | 0.5964 | 0.607 | 0.504 | 0.613 | 0.3923 | 0.5513 | 0.5329 | 0.3925 | 0.5037 | 0.3774 | 0.5464 | 0.5196 | 0.2646 | 0.6851 | 0.3599 | 0.6895 | 0.6552 | 0.388 | 0.4966 | 0.5737 | Array Heatmap signal, TRIM66 (PB) (TRIM66 (PB)): 0.5739; Array Heatmap signal, TAF3 (TAF3): 0.2764; Array Heatmap signal, MLL5 (MLL5): 0.5397; Array Heatmap signal, PHF13 (PHF13): 0.6291; Array Heatmap signal, MORC3 (CW) (MORC3 (CW)): 0.404; Array Heatmap signal, KDM5A (3) (KDM5A (3)): 0.4717; Array Heatmap signal, CHD5 (PCC) (CHD5 (PCC)): 0.8298; Array Heatmap signal, PHRF1 (RP) (PHRF1 (RP)): 0.4654; Array Heatmap signal, KDM5A (1) (KDM5A (1)): 0.5224; Array Heatmap signal, ING1 (ING1): 0.5537; Array Heatmap signal, ING4 (ING4): 0.4872 |
